# According to patent US11464756B1, “Mecuna pruriens, L-DOPA and 5-HTP based dietary supplements, pharmaceutical formulations and uses thereof” (priority 2017, dated 2022):
# Legend:
# [1] = cited from earlier work
# serotonin levels = assay: Short term rise of serotonin levels after taking 5-HTP; format: in vivo; conditions: short term result of taking 5-HTP
# Protocol: Recently 5-HTP has been introduced to the US market. […] Taking 5-HTP in any of several forms can raise serotonin levels in a natural way by “Filling the Well”. There appears to be both a short term and long term results from taking 5-HTP. Short term there seems to be a ‘burst’ lasting 4-5 hours when levels rise, and long term as the “reservoir” or “water table” rises, to extend the metaphor, we notice that it takes much less 5-HTP to achieve the same result.
compound,measurement,setting,value
"N[C@@H](Cc1c[nH]c2ccc(O)cc12)C(=O)O [Example 5-HTP, 5-Hydroxy-tryptophan]",time in which it is decarboxylated in the bloodstream,[1],≤ 45 min
same,duration of short term 'burst' when levels rise,serotonin levels,4 to 5 h
